Data: ChEMBL document CHEMBL5335785, “Structure-based virtual screening discovers potent and selective adenosine A1 receptor antagonists” (Eur J Med Chem, 2023)

How the values were obtained:
[1] = target: T1, Adenosine receptor A1 (Homo sapiens) (UniProt P30542); settings: Flp-In-CHO, time 60-90 min
T1 sequence (whole entry): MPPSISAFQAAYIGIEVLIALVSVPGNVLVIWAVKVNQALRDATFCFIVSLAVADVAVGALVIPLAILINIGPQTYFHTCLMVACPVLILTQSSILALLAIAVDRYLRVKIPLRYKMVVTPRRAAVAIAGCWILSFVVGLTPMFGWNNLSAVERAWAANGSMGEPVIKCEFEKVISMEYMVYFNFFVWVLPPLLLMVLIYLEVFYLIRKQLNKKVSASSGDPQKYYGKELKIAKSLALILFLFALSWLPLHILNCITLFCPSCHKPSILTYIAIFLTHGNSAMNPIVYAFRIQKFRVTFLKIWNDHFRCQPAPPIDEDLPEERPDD

Adenosine receptor A2a [2] = target: T2, Adenosine receptor A2a (Homo sapiens, UniProt P29274); settings: Flp-In-CHO, time 60-90 min
Adenosine receptor A1 [3] = target: T3, Adenosine receptor A1 (Homo sapiens, UniProt P30542); experiment: Antagonist activity at human A1R expressed in Flp-In-CHO cells assessed as NECA-mediated reduction in forskolin-stimulated cAMP accumulation incubated for 30 to 60 mins followed by forskolin/NECA addition measured after 30 mins by LANCE cAMP assay (reference value: 8.74 +/- 0.08); type: functional, cell-based
T3 sequence (P30542 whole entry): T1 sequence (whole entry)

Adenosine receptor A1 [4] = target: T3, Adenosine receptor A1; experiment: Displacement of [3H]DPCPX from human A1R expressed in Flp-In-CHO cells incubated for 12 hrs by microbeta plate counter analysis; type: cell-based
Adenosine receptor A2a [5] = target: T2, Adenosine receptor A2a; experiment: Antagonist activity at human A2AR expressed in Flp-In-CHO cells assessed as NECA-mediated cAMP accumulation incubated for 30 to 60 mins followed by NECA addition measured after 30 mins by LANCE cAMP assay (reference value: 8.38 +/- 0.03); type: functional, cell-based

T2 sequence (P29274 whole entry): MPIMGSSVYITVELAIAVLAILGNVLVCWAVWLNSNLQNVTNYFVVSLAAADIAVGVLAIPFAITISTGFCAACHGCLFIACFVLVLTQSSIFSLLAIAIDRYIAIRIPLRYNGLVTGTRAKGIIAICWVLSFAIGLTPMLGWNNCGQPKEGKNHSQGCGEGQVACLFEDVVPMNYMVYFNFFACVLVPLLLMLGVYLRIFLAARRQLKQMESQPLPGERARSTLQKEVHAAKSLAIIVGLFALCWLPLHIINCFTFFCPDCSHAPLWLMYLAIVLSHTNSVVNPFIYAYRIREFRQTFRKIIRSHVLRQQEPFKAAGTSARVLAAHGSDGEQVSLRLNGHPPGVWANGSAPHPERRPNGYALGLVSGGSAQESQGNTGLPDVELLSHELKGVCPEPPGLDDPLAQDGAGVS

| Structure (SMILES) | pKb ([1]; filed as antagonist) | pKb (Adenosine receptor A2a [2]; filed as antagonist) | EC50 (Adenosine receptor A1 [3]) | other results |
| --- | --- | --- | --- | --- |
| Cc1cccnc1C(=O)Nc1nc2c(s1)Cc1ccccc1-2 | – | – | – | pKb [1]: < 5.5 |
| O=C(Nc1nc2c(s1)Cc1ccccc1-2)c1ncn2cc(Cl)ccc12 | – | – | – | pKb [1]: < 5.5 |
| O=C(Nc1nc2c(s1)Cc1ccccc1-2)C12CC3CC(CC1C3)C2 | 7.57 | 6.3 | – | Ki (Adenosine receptor A1 [4]; read-out: Ki): 72 nM |
| CC1(CNc2ncc(-c3ccncc3)c(-c3cccs3)n2)COC1 | – | – | – | pKb [1]: < 5.5; pKb (Adenosine receptor A2a [2]): < 5.5 |
| O=C(Nc1nc(C2CC2)cs1)C1COc2ccccc2C1 (stereo unspecified) | – | – | 3.24 nM | – |
| Cn1c(=O)c2[nH]c(N(CCO)CCO)nc2n(C)c1=O | – | – | 17 nM | Ki (Adenosine receptor A1 [4]; read-out: pKi (converted)): 2820 nM; EC50 (Adenosine receptor A2a [5]): 6.92 nM |
| CC1(C(=O)Nc2nc3c(s2)Cc2ccccc2-3)CCCC1 | 7.86 | 7.4 | – | – |
| c1csc(-c2nc(NC3CCC4(CC3)OCCO4)ncc2-c2ccncc2)c1 | 7.07 | 6.53 | – | – |
| CC(=O)NC(CC(=O)Nc1nc(C(C)=O)cs1)c1ccc(C)cc1 (stereo unspecified) | – | – | 2.57 nM | – |
| C=C1CCC(C(=O)Nc2nc3c(s2)Cc2ccccc2-3)CC1 | 7.7 | 7.03 | – | – |
| CC1(CNc2ncc(-c3ccncc3)c(-c3cccs3)n2)OCCO1 | 6.38 | – | – | pKb (Adenosine receptor A2a [2]): < 5.5 |
| COc1ccc(C(=O)Nc2nc(C)c3cc4c(cc3n2)OCO4)cc1 | – | – | 1.91 nM | – |
| CC(=O)N1CCC(Nc2ncc(-c3ccncc3)c(-c3cccs3)n2)CC1 | 7.82 | 6.57 | – | – |
| O=C(CC1CCCC1)N1CCc2c(nc(N3CCCC3)[nH]c2=O)C1 | – | – | – | EC50 (Adenosine receptor A2a [5]): 4.47 nM |
| Cc1coc(C(=O)Nc2nc3c(s2)Cc2ccccc2-3)c1C | – | – | – | pKb [1]: < 5.5 |
| Cc1cccc(C(=O)Nc2nc3c(s2)Cc2ccccc2-3)c1C | 6.67 | – | – | pKb (Adenosine receptor A2a [2]): < 5.5 |
| Cc1nnsc1C(=O)Nc1nc2c(s1)Cc1ccccc1-2 | – | – | – | EC50 (Adenosine receptor A2a [5]): 63.1 nM |
| COC1(OC)CC(C)(C(=O)Nc2nc3c(s2)Cc2ccccc2-3)C1 | 6.7 | 7.25 | – | – |
| Cc1ccc2nc(C(=O)Nc3cnc4n3CCCC4)cn2c1 | – | – | – | EC50 (Adenosine receptor A2a [5]): 4.57 nM |
| CCC1CCC(C(=O)Nc2nc3c(s2)Cc2ccccc2-3)CC1 (stereo unspecified) | – | – | – | pKb [1]: < 5.5; pKb (Adenosine receptor A2a [2]): < 5.5 |
| Cc1c(C(=O)Nc2nc3c(s2)Cc2ccccc2-3)ccc2cncn12 | – | – | – | pKb [1]: < 5.5; pKb (Adenosine receptor A2a [2]): < 5.5 |
| c1ccc(CNc2nc(N3CCCCC3)c3nccnc3n2)nc1 | – | – | 2.51 nM | – |
| CCOc1nc(NC(CO)c2ccco2)ncc1Br (stereo unspecified) | – | – | 14.8 nM | Ki (Adenosine receptor A1 [4]; read-out: pKi (converted)): 2450 nM |
| O=C(Nc1noc(-c2ccccc2)n1)c1cccc(Cl)c1 | – | – | 2.82 nM | EC50 (Adenosine receptor A2a [5]): 10.5 nM |
| CC(C)N1CC(C(=O)Nc2nc3ccccc3[nH]2)CC1=O (stereo unspecified) | – | – | – | EC50 (Adenosine receptor A2a [5]): 20.4 nM |

More lines, main results first:

| pKb ([1]; filed as antagonist) | pKb (Adenosine receptor A2a [2]; filed as antagonist) | EC50 (Adenosine receptor A1 [3]) | Structure (SMILES) | other results |
| --- | --- | --- | --- | --- |
| 7.29 | 6.87 | – | O=C(Nc1nc2c(s1)Cc1ccccc1-2)C1CCCCCC1 | – |
| – | – | 3.31 nM | CC(Sc1nnc(C(C)C)[nH]1)C(=O)c1ccccc1 (stereo unspecified) | – |
| – | – | 3.63 nM | O=C(Nc1nc2ccccc2s1)N(CCO)C1CC1 | EC50 (Adenosine receptor A2a [5]): 6.03 nM |
| – | – | 2.34 nM | COCC(O)CNc1ncc(C)c(-c2ncnn2C)n1 (stereo unspecified) | EC50 (Adenosine receptor A2a [5]): 4.57 nM |
| 7.24 | 7 | – | O=C(Nc1nc2c(s1)Cc1ccccc1-2)C1CCCCC1 | – |
| 7.15 | 6.09 | – | CC(C)(CNc1ncc(-c2ccncc2)c(-c2cccs2)n1)C1CCC1 | – |
| 8.1 | 6.79 | – | c1csc(-c2nc(NC3CCCCCC3)ncc2-c2ccncc2)c1 | – |
| 7.85 | 7.25 | – | CC1(C(=O)Nc2nc3c(s2)Cc2ccccc2-3)CCC(=O)CC1 | – |
